One data set has as its system SH-SY5Y cells. Description: Cellular internalization of TAMRA-labeled peptides by flow cytometry. In kind it is cell-based, human. The following applies: FBS-supplemented medium, n = 3. On the procedure: Figure 2 Cellular internalization of peptidic bioconjugates in SH-SY5Y neurons. Mean cell fluorescence intensity was measured by flow cytometry after continuous incubation with the fluorescent TAMRA-labeled bioconjugates in FBS-supplemented medium for increasing time periods. Values were normalized against the fluorescence background of untreated cells and expressed as fold increase. (a) Internalization kinetics of ANG-SI, ANG or SI at 1 μM (mean ± SD, n = 3). (b) Energy-dependence of the internalization of ANG-SI at 37 °C and 4 °C (mean ± SD, n = 3). ***P ≤ 0.001 and ****P ≤ 0.0001, unpaired Student’s t test. (c) Confocal images of cells incubated with ANG-SI, ANG or SI (red) for 1 h. Cells’ perimeter and nuclei have been delineated for reference. Scale bar 10 μm. […]
To study the uptake of the ANG conjugates, cells were incubated with the different fluorescently labeled peptides at 1 μM in FBS-supplemented medium for increasing periods of time, after which they were washed according to previously established protocols[50] and harvested with trypsin for their analysis by flow cytometry. The mean fluorescence values obtained from the analysis were normalized against the background fluorescence of untreated cells and were presented as fold-increase of this intensity. […]

The target in the next data set is T1, BACE1 (Homo sapiens, UniProt P56817).
T1 construct: SH-SY5Y cells overexpressing either Swedish-mutant APP or the isoforms APP695 or APP751 were seeded in 24-well plates; endogenous in cells; host or cells: SH-SY5Y cells overexpressing Swedish-mutant APP (also APP695 or APP751 lines)
T1 sequence (P56817 46-501): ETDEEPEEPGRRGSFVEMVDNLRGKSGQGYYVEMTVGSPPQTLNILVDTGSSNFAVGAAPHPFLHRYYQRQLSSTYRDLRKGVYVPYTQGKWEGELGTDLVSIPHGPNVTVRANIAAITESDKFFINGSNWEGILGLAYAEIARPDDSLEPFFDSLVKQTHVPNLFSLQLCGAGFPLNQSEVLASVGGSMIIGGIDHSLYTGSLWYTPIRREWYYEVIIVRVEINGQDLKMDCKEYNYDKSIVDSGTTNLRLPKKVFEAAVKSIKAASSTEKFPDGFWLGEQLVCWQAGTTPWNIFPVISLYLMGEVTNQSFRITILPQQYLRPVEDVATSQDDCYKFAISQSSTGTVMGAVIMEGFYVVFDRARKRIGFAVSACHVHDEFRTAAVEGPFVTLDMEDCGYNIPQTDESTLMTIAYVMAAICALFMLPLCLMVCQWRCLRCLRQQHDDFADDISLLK
Description: Activity test on human neurons: Aβ38, Aβ40, Aβ42 in supernatant by ELISA. In kind it is cell-based. The following applies: 6 h, swAPP SH-SY5Y cells. The protocol: Figure 5 BACE1-inhibitory activity of the bioconjugates. […] The content of Aβ peptides was measured in the cells’ supernatant upon treatment and normalized setting the values of control DMSO-treated cells as 100% (Mean ± SD, n = 3–6). […] GAPDH was used as loading control. (b) Inhibitory activity of the ANG-SI bioconjugate at a range of concentrations (5–100 μM) after 6 h incubation with swAPP cells (Mean ± SD, n = 3–6). *P ≤ 0.05, **P ≤ 0.01, ***P ≤ 0.001, ****P ≤ 0.0001, one-way ANOVA followed by Dunnet test.
Supernatant from the tissue culture plates was then collected in low protein-binding tubes and analyzed by enzyme-linked immunosorbent assay with the Multi-Spot Assay System from Meso Scale Discovery (Rockville, MD) detecting human Aβ38, Aβ40 and Aβ42 peptides (#K15200E,) following manual’s instructions. The values obtained for the different conjugates varied in intensity (Aβ42 ~70,000 RU, Aβ40 ~400,000 RU and Aβ38 ~4,000 RU) and were normalized for the basal Aβ level detected in the supernatant of DMSO-treated cells, which was set as 100%.
On the technique in general: An ELISA detects its analyte on a solid surface through an enzyme-linked reagent.

For a further data set, the system named is SH-SY5Y wild-type cells. Conditions: 30 min pre-treatment, 1 h incubation, flow cytometry, n = 3; for decrease of uptake on treatment with EIPA: 60 μM EIPA, 3 μM peptide or 0.75 mg/mL 70 kDa dextran; for decrease of uptake in the presence of Dynasore: 100 μM Dynasore, serum-free medium, 3 μM peptide or 5 μg/mL transferrin. Background: In flow cytometry, cells or beads pass a laser one at a time.

The next data set relates to wild type SH-SY5Y cells. The data set is classed as cell-based, human. Conditions: 5 μM, continuous exposure over 72 h, RTCA xCELLigence. On the procedure:
Figure S7 – Activity of the TAT-SI and TRP-SI bioconjugates on swAPP-overexpressing SH-SY5Y cells. […]
μM in FBS-supplemented medium. Mean ± SD (n=3). **P<0.01 and ****P<0.0001, one-way ANOVA followed […]
Figure S8 – Cytotoxicity of the peptides. Cell growth was monitored over 72 h using wild type SH-SY5Y cells during continuous exposure to the peptides at 5 μM using a Real-Time Cell Analysis (RTCA) xCELLigence system from Roche (Rotkreuz, Switzerland). Briefly, cells were seeded on the E-plates (10,000 cells/well) and after one day the medium was replaced by fresh medium containing the corresponding peptide and the cells were grown for 72 h. Cell growth was monitored with the RTCA system over 72 h during continuous exposure to the peptides at 5 μM. […]

A further data set has as its target T2, purified BACE1 enzyme (Homo sapiens, UniProt P56817).
T2 construct: purchased AnaSpec (Fremont, CA)
Put plainly: Activity test against purified BACE1 enzyme (cell-free, SensoLyte 520 β-secretase assay kit). In kind it is biochemical. Conditions: cell-free assay of purified BACE1; mean of n = 3, except ANG-PEG-SI n = 2; CI 95% printed alongside; read-out: IC50 (concentration at which 50% of relative cleavage was achieved). On the procedure:
Figure 1 Peptidic bioconjugates and their activity on purified BACE1 enzyme. (a) Scheme of the main bioconjugates used in this study with their corresponding sequences.
A range of concentrations of the different bioconjugates were tested in a cell-free assay of purified BACE1 enzyme using the SensoLyte 520 β–secretase assay kit from AnaSpec (Fremont, CA) following manufacturer’s guidelines.

Where a SMILES comes first, the peptide text is derived from it. [ ]: non-standard residue; d: D form. Sta = CC(C)C[C@H](N)[C@@H](O)CC(=O)O

T2 sequence (P56817 46-501): as above
Description for SH-SY5Y wild-type cells: Cell fluorescence distributions of cells treated with (a) 100 μM Dynasore or (b) 60 μM EIPA. […] Background cell fluorescence of only inhibitor-treated cells is shown (grey). Distributions shown are representative examples of three independent experiments. (c,d) Mean cell fluorescence intensity of the distributions shown in (a) or (b), respectively. The markers transferrin (Trf) and Dextran are shown for reference. (e) Frequency of cells in each of the two subpopulations (Negative or Positive) present upon treatment with ANG, as defined by the gates shown in the fluorescence distribution in (b). Numerical data are represented as mean ± SD (n = 3). *P ≤ 0.05 and **P ≤ 0.01, one-way ANOVA followed by Dunnet test.
For the pharmacological inhibition of endocytosis, we used Dynasore to inhibit clathrin-mediated endocytosis and 5-(N-Ethyl-N-isopropyl)amiloride (EIPA) to block macropinocytosis. […] To verify their inhibitory effects, we used fluorescently labeled human transferrin and 70 kDa dextran, respectively. […] Dynasore-treated cells were washed thrice with acidic wash buffer (0.2 M acetic acid and 0.2 M NaCl) and once with PBS prior to being harvested with trypsin for their analysis by flow cytometry. EIPA-treated cells were washed once with PBS, twice with acetate wash buffer (0.1 M sodium acetate and 0.05 M NaCl, pH 5.5) for 5 min each, and finally once more with PBS prior to being harvested with trypsin for their analysis by flow cytometry.

Regarding “EVN-statine-VAEFTFFYGGSRGKRNNFKTEEY (N-terminal EVN-statine) [ANG-SI]”, the “internalization into cells (mean cell fluorescence intensity)” value with SH-SY5Y cells (TAMRA-labeled peptide, 1 μM, up to 5 h continuous incubation, 37 °C) is reported as “taken up by cells”. Further, the “internalization at 4 °C instead of 37 °C (energy dependence)” value with SH-SY5Y cells (TAMRA-labeled, 1 h pre-incubation at 4 °C) was “significantly decreased”. Also, the “decrease in the enzymatic activity of BACE1” value with BACE1 (concentrations five times higher than 5 μM, n = 3–6) is ~ 25%. For the same compound, the “decrease in the enzymatic activity of BACE1” value in the data set with BACE1 (concentrations twenty times higher than 5 μM, n = 3–6) is recorded as ~ 60%. Further, in the data set with SH-SY5Y wild-type cells, the “decrease of uptake on treatment with EIPA” value is 50% and the “decrease of uptake in the presence of Dynasore” value was 20%.
As for “transferrin: fluorescently labeled human transferrin, clathrin-mediated endocytosis marker [reference compound]”, the “decrease of uptake in the presence of Dynasore” value in the data set on SH-SY5Y wild-type cells is listed as ~ 35%.
For `C[C@@]1(c2cc(-c3cncnc3)c(F)cc2F)CCSC(N)=N1` [LY2811376, reference compound], the “decrease of the levels of Aβ peptides 38, 40 and 42 in supernatant” value on BACE1 (5 μM, FBS-supplemented medium, normalized to DMSO-treated cells = 100%, n = 3–6) is given as > 90%.
For dextran [reference compound], the “decrease of uptake on treatment with EIPA” value in the data set with SH-SY5Y wild-type cells turned out to be 50%.
As for `CC[C@H](C)[C@H](NC(=O)[C@H](CCCCN)NC(=O)[C@H](CCCCN)NC(=O)[C@H](C)NC(=O)[C@H](CC(C)C)NC(=O)[C@H](C)NC(=O)[C@H](C)NC(=O)[C@H](CC(C)C)NC(=O)[C@H](C)NC(=O)[C@H](CCCCN)NC(=O)[C@H](CC(C)C)NC(=O)[C@H](CC(N)=O)NC(=O)[C@@H](NC(=O)[C@H](CCCCN)NC(=O)CNC(=O)[C@H](CC(C)C)NC(=O)[C@H](CC(C)C)NC(=O)[C@H](Cc1ccc(O)cc1)NC(=O)CNC(=O)[C@H](C)NC(=O)[C@H](CO)NC(=O)[C@H](CC(N)=O)NC(=O)[C@H](CC(C)C)NC(=O)[C@@H](NC(=O)[C@H](Cc1c[nH]c2ccccc12)NC(=O)CNC(=O)[C@H](Cc1ccccc1)NC(=O)[C@H](CCC(=O)O)NC(=O)[C@H](C)NC(=O)[C@@H](NC(=O)C[C@H](O)[C@H](CC(C)C)NC(=O)[C@H](CC(N)=O)NC(=O)[C@@H](NC(=O)[C@@H](N)CCC(=O)O)C(C)C)C(C)C)[C@@H](C)O)[C@@H](C)CC)C(=O)N[C@@H](CC(C)C)C(=O)O` [TRP-SI] (H-EVN[Sta]VAEFGWTLNSAGYLLGKINLKALAALAKKIL-OH), the “cytotoxicity (cell growth)” value in the data set on wild type SH-SY5Y cells was “cytotoxic effect”.
“EVN-statine-VAEF-PEG-TFFYGGSRGKRNNFKTEEY [ANG-PEG-SI, ANG and SI joined by an inert poly(ethylene glycol) linker]”: the IC50 at purified BACE1 enzyme was determined as 87.1 nM. Moreover, on BACE1 (5 μM, FBS-supplemented medium, normalized to DMSO-treated cells), the “effect on Aβ peptide levels (cellular activity)” value is recorded as “did not show cellular activity”.

For the origin of these results see article PMC5041153, “Presumed LRP1-targeting transport peptide delivers β-secretase inhibitor to neurons in vitro with limited efficiency” (Scientific Reports, 2016).
